6 compounds from patent US12139520B2 (priority 2020, dated 2024) can be followed below.

Bridge positions count the residues as written; N and C are the ends. Square brackets hold non-standard residues; d marks the D form. Peptide text beside a SMILES is read from it. Hyp = O=C(O)[C@@H]1C[C@@H](O)CN1

A word on the EC50: it is the concentration giving half of the maximal effect.

One series deals with T1, hAMY3 receptor (Homo sapiens, UniProt O60896+P30988).
T1 sequence (P30988 25-474): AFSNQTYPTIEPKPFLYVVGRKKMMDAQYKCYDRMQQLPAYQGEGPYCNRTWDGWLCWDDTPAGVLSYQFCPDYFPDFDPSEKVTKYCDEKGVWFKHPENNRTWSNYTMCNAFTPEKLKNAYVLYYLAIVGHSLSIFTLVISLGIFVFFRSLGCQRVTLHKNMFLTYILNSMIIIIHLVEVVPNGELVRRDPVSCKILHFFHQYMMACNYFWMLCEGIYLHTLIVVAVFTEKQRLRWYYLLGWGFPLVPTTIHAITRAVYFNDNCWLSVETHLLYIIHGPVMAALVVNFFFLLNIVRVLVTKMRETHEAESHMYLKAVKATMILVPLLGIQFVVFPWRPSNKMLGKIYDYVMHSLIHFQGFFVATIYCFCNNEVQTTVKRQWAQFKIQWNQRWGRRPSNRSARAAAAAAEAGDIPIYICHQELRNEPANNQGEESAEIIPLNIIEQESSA
T1 sequence (O60896 24-148 partner): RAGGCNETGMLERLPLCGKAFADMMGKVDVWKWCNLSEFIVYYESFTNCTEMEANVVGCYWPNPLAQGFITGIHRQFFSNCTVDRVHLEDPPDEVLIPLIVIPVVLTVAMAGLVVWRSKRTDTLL
Briefly: cAMP assay for in vitro receptor activation, hAMY3-R. It is filed as cell-based. Conditions: cAMP assay, hAMY3 receptor; read-out: hAMY3R EC50. The essentials: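 Accumulated cAMP was detected by time-resolved FRET one hour after reagent addition. Beforehand, hAMY3-R-overexpressing monoclonal cells (2000/well, DPBS, 0.05% casein, 0.5 mM IBMX) received graded doses of compound for 30 min at room temperature; human amylin served as positive control.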
(In general: Cyclic AMP is a second messenger, typically raised through Gs and lowered through Gi signalling.)

Series [1] is described as follows: Physical stability of peptide analogues (Thioflavin T fibrillation). Conditions: maximum ThT signal normalized between hAMY maximum and buffer background; 40° C., shaking, four days; pH 7 per table title. It is filed as physicochemical. An outline of the steps: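 1 h in 50 mM NaOAc pH 4 / 50 mM NaPi pH 7; + ThT 4 μM final; 40 °C, 700 rpm linear shake 5 min pre-read; ex 450, em 480 nm q10 min × 4 d; LOESS smoothing; max signal normalised to hAMY max vs buffer blank.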

With `CC[C@H](C)[C@H](NC(=O)[C@H](CCC(N)=O)NC(=O)[C@H](Cc1c[nH]cn1)NC(=O)[C@H](C)NC(=O)[C@H](CC(C)C)NC(=O)[C@H](CCCNC(=N)N)NC(=O)[C@H](CCC(N)=O)NC(=O)[C@@H](NC(=O)[C@@H](NC(=O)[C@@H]1CSSC[C@H](NC(=O)CN)C(=O)N[C@@H](CCCNC(=N)N)C(=O)N[C@@H](Cc2ccccc2)C(=O)NCC(=O)N[C@@H]([C@@H](C)O)C(=O)N1)[C@@H](C)O)C(C)C)C(=O)N[C@@H](Cc1ccc(O)cc1)C(=O)N[C@@H](CCC(N)=O)C(=O)N[C@@H](Cc1ccccc1)C(=O)N[C@H](C(=O)N[C@@H](CC(=O)O)C(=O)N[C@@H](CCCCN)C(=O)N[C@@H](CC(=O)O)C(=O)N[C@@H](CCCCN)C(=O)N[C@@H](CC(=O)O)C(=O)N[C@@H](CC(N)=O)C(=O)N[C@H](C(=O)N[C@@H](C)C(=O)N1CCC[C@H]1C(=O)N[C@@H](CCCNC(=N)N)C(=O)N[C@@H](CO)C(=O)N[C@@H](CCCCN)C(=O)N[C@H](C(=O)NCC(=O)N1CCC[C@H]1C(=O)N[C@@H](CCC(N)=O)C(=O)NCC(=O)N1C[C@H](O)C[C@H]1C(N)=O)C(C)C)C(C)C)[C@@H](C)O` [compound 152] (H-GCRFGTCTVQRLAHQIYQFTDKDKDNVAPRSKVGPQG[Hyp]-NH2; disulfide 2-7; N-terminus assumed), the EC50 at hAMY3 receptor came out at 0.041 nM. Also, the “Max ThT signal (%)” value in series [1] is 1.900%.

`CC[C@H](C)[C@H](NC(=O)[C@H](CCC(N)=O)NC(=O)[C@H](Cc1c[nH]cn1)NC(=O)[C@H](C)NC(=O)[C@H](CC(C)C)NC(=O)[C@H](CCCNC(=N)N)NC(=O)[C@H](CCC(N)=O)NC(=O)[C@@H](NC(=O)[C@@H](NC(=O)[C@@H]1CSSC[C@H](NC(=O)CN)C(=O)N[C@@H](CCCNC(=N)N)C(=O)N[C@@H]([C@@H](C)O)C(=O)NCC(=O)N[C@@H]([C@@H](C)O)C(=O)N1)[C@@H](C)O)C(C)C)C(=O)N[C@@H](Cc1ccc(O)cc1)C(=O)N[C@@H](CCC(N)=O)C(=O)N[C@@H](Cc1ccccc1)C(=O)N[C@H](C(=O)N[C@@H](CC(=O)O)C(=O)N[C@@H](CCCCN)C(=O)N[C@@H](CC(=O)O)C(=O)N[C@@H](CCCCN)C(=O)N[C@@H](CC(=O)O)C(=O)N[C@@H](CC(N)=O)C(=O)N[C@H](C(=O)N[C@@H](C)C(=O)N1CCC[C@H]1C(=O)N[C@@H](CCCNC(=N)N)C(=O)N[C@H](C(=O)N[C@@H](CCCCN)C(=O)N[C@H](C(=O)NCC(=O)N1CCC[C@H]1C(=O)N[C@@H](CCC(N)=O)C(=O)NCC(=O)N[C@@H](Cc1ccc(O)cc1)C(N)=O)C(C)C)[C@@H](C)O)C(C)C)[C@@H](C)O` [compound 156] (H-GCRTGTCTVQRLAHQIYQFTDKDKDNVAPRTKVGPQGY-NH2; disulfide 2-7; N-terminus assumed): the EC50 at hAMY3 receptor turned out to be 0.047 nM. The “Max ThT signal (%)” value in series [1] was found to be 15.300%.

For `CC[C@H](C)[C@H](NC(=O)[C@H](CCC(N)=O)NC(=O)[C@H](Cc1c[nH]cn1)NC(=O)[C@H](C)NC(=O)[C@H](CC(C)C)NC(=O)[C@H](CCCNC(=N)N)NC(=O)[C@H](CCC(N)=O)NC(=O)[C@@H](NC(=O)[C@@H](NC(=O)[C@@H]1CSSC[C@H](NC(=O)CN)C(=O)N[C@@H](CCCNC(=N)N)C(=O)N[C@@H](Cc2ccccc2)C(=O)NCC(=O)N[C@@H]([C@@H](C)O)C(=O)N1)[C@@H](C)O)C(C)C)C(=O)N[C@@H](Cc1ccc(O)cc1)C(=O)N[C@@H](CCC(N)=O)C(=O)N[C@@H](Cc1ccccc1)C(=O)N[C@H](C(=O)N[C@@H](CC(=O)O)C(=O)N[C@@H](CCCCN)C(=O)N[C@@H](CC(=O)O)C(=O)N[C@@H](CCCCN)C(=O)N[C@@H](CC(=O)O)C(=O)N[C@@H](CC(N)=O)C(=O)N[C@H](C(=O)N[C@@H](C)C(=O)N1CCC[C@H]1C(=O)N[C@@H](CCCNC(=N)N)C(=O)N[C@@H](CO)C(=O)N[C@@H](CC(N)=O)C(=O)N[C@H](C(=O)N[C@@H](CO)C(=O)N1CCC[C@H]1C(=O)N[C@@H](CCC(N)=O)C(=O)NCC(=O)N1C[C@H](O)C[C@H]1C(N)=O)[C@@H](C)CC)C(C)C)[C@@H](C)O` [compound 158] (H-GCRFGTCTVQRLAHQIYQFTDKDKDNVAPRSNISPQG[Hyp]-NH2; disulfide 2-7; N-terminus assumed), the EC50 on hAMY3 receptor is 0.048 nM. Also, the “Max ThT signal (%)” value in series [1] was 6.300%.

`CC[C@H](C)[C@H](NC(=O)[C@H](CCCCN)NC(=O)[C@@H](NC(=O)[C@H](CCCNC(=N)N)NC(=O)[C@@H]1CCCN1C(=O)[C@H](C)NC(=O)[C@@H](NC(=O)[C@H](CC(N)=O)NC(=O)[C@H](CC(=O)O)NC(=O)[C@H](CCCCN)NC(=O)[C@H](CC(=O)O)NC(=O)[C@H](CCCCN)NC(=O)[C@H](CC(=O)O)NC(=O)[C@@H](NC(=O)[C@H](Cc1ccccc1)NC(=O)[C@H](CCC(N)=O)NC(=O)[C@H](Cc1ccc(O)cc1)NC(=O)[C@@H](NC(=O)[C@H](CCC(N)=O)NC(=O)[C@H](Cc1c[nH]cn1)NC(=O)[C@H](C)NC(=O)[C@H](CC(C)C)NC(=O)[C@H](CCCNC(=N)N)NC(=O)[C@H](CCC(N)=O)NC(=O)[C@@H](NC(=O)[C@@H](NC(=O)[C@@H]1CSSC[C@H](NC(=O)CN)C(=O)N[C@@H](CCCNC(=N)N)C(=O)N[C@@H]([C@@H](C)O)C(=O)NCC(=O)N[C@@H]([C@@H](C)O)C(=O)N1)[C@@H](C)O)C(C)C)[C@@H](C)CC)[C@@H](C)O)C(C)C)[C@@H](C)O)C(=O)NCC(=O)N1CCC[C@H]1C(=O)N[C@@H](CCC(N)=O)C(=O)NCC(=O)N1C[C@H](O)C[C@H]1C(N)=O` [compound 161] (H-GCRTGTCTVQRLAHQIYQFTDKDKDNVAPRTKIGPQG[Hyp]-NH2; disulfide 2-7; N-terminus assumed): the EC50 at hAMY3 receptor was found to be 0.051 nM. Also, the “Max ThT signal (%)” value in series [1] was determined as 14.300%.

As for `CC[C@H](C)[C@H](NC(=O)[C@H](CCC(N)=O)NC(=O)[C@H](Cc1c[nH]cn1)NC(=O)[C@H](C)NC(=O)[C@H](CC(C)C)NC(=O)[C@H](CCCNC(=N)N)NC(=O)[C@H](CCC(N)=O)NC(=O)[C@@H](NC(=O)[C@@H](NC(=O)[C@@H]1CSSC[C@H](NC(=O)CN)C(=O)N[C@@H](CCCNC(=N)N)C(=O)N[C@@H]([C@@H](C)O)C(=O)NCC(=O)N[C@@H]([C@@H](C)O)C(=O)N1)[C@@H](C)O)C(C)C)C(=O)N[C@@H](Cc1ccc(O)cc1)C(=O)N[C@@H](CCC(N)=O)C(=O)N[C@@H](Cc1ccccc1)C(=O)N[C@H](C(=O)N[C@@H](CC(=O)O)C(=O)N[C@@H](CCCCN)C(=O)N[C@@H](CC(=O)O)C(=O)N[C@@H](CCCCN)C(=O)N[C@@H](CC(=O)O)C(=O)N[C@@H](CC(N)=O)C(=O)N[C@H](C(=O)N[C@@H](C)C(=O)N1CCC[C@H]1C(=O)N[C@@H](CCCNC(=N)N)C(=O)N[C@H](C(=O)N[C@@H](CC(N)=O)C(=O)N[C@H](C(=O)N[C@@H](CO)C(=O)N1CCC[C@H]1C(=O)N[C@@H](CC(N)=O)C(=O)NCC(=O)N1C[C@H](O)C[C@H]1C(N)=O)C(C)C)[C@@H](C)O)C(C)C)[C@@H](C)O` [compound 163] (H-GCRTGTCTVQRLAHQIYQFTDKDKDNVAPRTNVSPNG[Hyp]-NH2; disulfide 2-7; N-terminus assumed), the EC50 at hAMY3 receptor was 0.053 nM. For the same compound, the “Max ThT signal (%)” value in series [1] worked out at 2.000%.

Regarding `CC[C@H](C)[C@H](NC(=O)[C@H](CCC(N)=O)NC(=O)[C@H](Cc1c[nH]cn1)NC(=O)[C@H](C)NC(=O)[C@H](CC(C)C)NC(=O)[C@H](CCCNC(=N)N)NC(=O)[C@H](CCC(N)=O)NC(=O)[C@@H](NC(=O)[C@@H](NC(=O)[C@@H]1CSSC[C@H](NC(=O)CN)C(=O)N[C@@H](CCCNC(=N)N)C(=O)N[C@@H](Cc2ccccc2)C(=O)NCC(=O)N[C@@H]([C@@H](C)O)C(=O)N1)[C@@H](C)O)C(C)C)C(=O)N[C@@H](Cc1ccc(O)cc1)C(=O)N[C@@H](CCC(N)=O)C(=O)N[C@@H](Cc1ccccc1)C(=O)N[C@H](C(=O)N[C@@H](CC(=O)O)C(=O)N[C@@H](CCCCN)C(=O)N[C@@H](CC(=O)O)C(=O)N[C@@H](CCCCN)C(=O)N[C@@H](CC(=O)O)C(=O)N[C@@H](CC(N)=O)C(=O)N[C@H](C(=O)N[C@@H](C)C(=O)N1CCC[C@H]1C(=O)N[C@@H](CCCNC(=N)N)C(=O)N[C@H](C(=O)N[C@@H](CCCCN)C(=O)N[C@H](C(=O)N[C@@H](CO)C(=O)N1CCC[C@H]1C(=O)N[C@@H](CCC(N)=O)C(=O)NCC(=O)N[C@@H](Cc1ccc(O)cc1)C(N)=O)[C@@H](C)CC)[C@@H](C)O)C(C)C)[C@@H](C)O` [compound 164] (H-GCRFGTCTVQRLAHQIYQFTDKDKDNVAPRTKISPQGY-NH2; disulfide 2-7), the concentration giving a half-maximal response (EC50) on hAMY3 receptor came out at 0.054 nM. The “Max ThT signal (%)” value in series [1] was found to be 24.300%.
